Assay in all cases: NCI tumour cell line growth inhibition, 48 h
The test system of test [1] is RPMI-8226 leukemia.
The subject of test [2] is A549 NSCLC.
Test [3] concerns OVCAR-5 ovarian.
Test [4] has as its system UACC-257 melanoma.
In test [5] the test system is MDA-MB-231 breast.
In test [6] the test system is NCI/ADR-RES ovarian.
Test [7] relates to CAKI-1 renal.
Test [8] deals with SNB-75 CNS.
The test system of test [9] is SK-OV-3 ovarian.

“And” between values parts separate entries of the source, which are not always exact repeats. Identical values can stand only once.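 Assay format: 96-well plates, 48-hour exposure. GI50 is the concentration that inhibits growth by half. TGI: total growth inhibition.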 A value given as a limit tells only on which side of the number the result lay.

As for `CC1(C)OC[C@@H](/C=C\CCO[Si](c2ccccc2)(c2ccccc2)C(C)(C)C)N1C(=O)c1ccccc1`, the TGI in test [1] is 23.2 µM; in test [2] it was 23.2 µM; in test [3], 46 µM; in test [4] it was 24.1 µM; in test [5], 38.4 µM; in test [6] it was above 100 µM. The TGI in test [7], in [8] and in [9] was above 100 µM in each case.
For `Oc1ccc2ccccc2c1-c1nnc(CCCCCCCCc2nnc(-c3c(O)ccc4ccccc34)o2)o1`, the GI50 is 3.56 µM in test [1]; 19.9 µM in [3]; 2.26 µM in [4]; 0.583 µM in test [5]; 0.38 µM in test [6]; 0.698 µM in test [7]. Besides, in [8], the GI50 was 27.2 µM. For the same compound, the TGI in test [1] was 25 µM and > 100 µM; in test [2], 25 µM and 32.9 µM; in test [3] it was 25 µM and > 100 µM; in test [4] it was 25 µM and > 100 µM; in test [7] it was 3.11 µM; in [8] it was 25 µM and > 100 µM. Further, the TGI in [9] was above 100 µM.
Turning to `N#Cc1c(=O)c2cccnc2n2c1[nH]c1ccccc12`, the TGI in [1], in [2], in test [3], in [4], in [5] and in [6] was above 100 µM throughout. The TGI in test [7], in test [8] and in test [9] was above 100 µM in each case.
`CCCCCCCCCCCCCCCCP(=O)(O)OP(=O)(O)OCC1OC(n2ccc(N)nc2=O)C(O)C1O` (stereo not drawn): the GI50 in test [1] is > 100 µM and 35.1 µM; in test [4], > 100 µM and 41.8 µM; in test [5], > 100 µM and 37.9 µM; in [7], 75.8 µM and 11.9 µM; in test [9] it was > 100 µM and 11 µM. The TGI is above 100 µM in test [1]; above 100 µM in test [2]; 65.3 µM and > 64.4 µM in [3]; above 100 µM in test [4]; above 100 µM in [5]; above 100 µM in test [6]. Besides, the TGI in [7] is above 100 µM; in test [8] it was 60.6 µM and 45.8 µM; in [9], > 100 µM and 72.6 µM.
As to `C=CCc1c(O)c2ccccc2[nH]c1=O`, the TGI in [1], in [2], in test [3], in test [4], in test [5] and in test [6] was above 100 µM throughout. The TGI in test [7] and in [8] was above 100 µM in each case.
Regarding `COc1cc(C2C(Cl)C(=O)N2c2ccc(Br)cc2)cc(I)c1O` (stereo not drawn), the TGI in [1], in test [2], in [3], in [4], in [5] and in test [6] was above 100 µM each time. Moreover, the TGI in test [7], in test [8] and in [9] was above 100 µM throughout.
In the case of `O=C1CSC2(CC(/C=C/C=C/c3ccccc3)=NN2c2cccc(S(=O)(=O)O)c2)N1c1nc2ccccc2s1` (stereo not drawn), the TGI in test [1] was 55 µM; in test [2] it was above 100 µM; in [3], above 100 µM; in [4], above 100 µM; in test [5] it was above 100 µM; in test [6], above 100 µM. The TGI in test [7] and in test [8] was above 100 µM each time.
As for `C=C(CCOC)CCC1CCCCC(=C)C1=O` (stereo not drawn), the TGI in [1], in test [2], in test [3], in [5], in test [6] and in test [7] was above 100 µM each time. Moreover, the TGI in [8] and in [9] was above 100 µM in each case.
With `CSc1c(C(C)=O)c(O)n(-c2ccc(Cl)cc2)c(=O)c1C#N`, the TGI in test [1] is 99.2 µM; in [2] it was above 100 µM; in test [3], above 100 µM; in [4], above 100 µM; in test [5], above 100 µM; in test [6] it was above 100 µM. Moreover, the TGI in [7] was 53.2 µM; in [8] it was above 100 µM; in [9], above 100 µM.
With `CC(=O)N(C(C)=O)n1c(Cc2ccc(Cl)cc2)nn(C(C)=O)c1=O`, the TGI in [1], in test [2], in [3], in [5], in test [6] and in [8] was above 100 µM in each case. In test [9], the TGI was above 100 µM.
Turning to `C/C(=N\N=C(N)N)c1c(C(=O)OCCCCCCOC(=O)c2nc3sccn3c2/C(C)=N/N=C(N)N)nc2sccn12`, the TGI in test [1], in test [2], in test [3], in test [4], in [5] and in test [6] was above 100 µM in each case. The TGI in [7] and in test [8] was above 100 µM throughout.
In the case of `CCCCCCCCCCCCC(=O)NCC(=O)NC(Cc1ccccc1)C(=O)Oc1ccc([N+](=O)[O-])cc1` (stereo not drawn), the TGI in test [2], in [3], in test [4], in test [5], in test [6] and in test [7] was above 100 µM throughout. In test [8], this compound had a TGI above 100 µM.
Consider `CCCCn1cc(C(=O)O)c(=O)c2c3sccc3ccc21`, for which the TGI in test [1] was above 100 µM; in test [2], above 100 µM; in test [3], above 100 µM; in test [4], above 100 µM; in test [5], above 100 µM; in [6], 43.4 µM. Further, the TGI in [7], in test [8] and in [9] was above 100 µM throughout.
For the compound `O=C1/C(=C/c2ccccc2S)N=C(c2ccccc2)N1c1ccc2c(c1)Sc1cc(N3C(=O)/C(=C/c4ccccc4S)N=C3c3ccccc3)ccc1N2`, the TGI was 46.8 µM in test [1]; 35 µM in test [2]; 35.6 µM in [3]; 42.3 µM in test [4]; 89.9 µM in test [5]; above 100 µM in test [6]. Besides, the TGI in test [7] came to 41.7 µM; in test [8], 38.4 µM; in test [9], 33.8 µM.

These data come from PubChem BioAssay (NCI).
